Measurements as given in US11931423B2, “Glucose oxidase-nanoparticle bioconjugates for cancer treatment” (UNIVERSITY OF PITTSBURGH—OF THE COMMONWEALTH SYSTEM OF …, priority 2017, dated 2024).

Test system: A431 cells with high EGFR expression
Assay: A431 cell viability (CellTiter-Glo viability assay)
Format: cell-based
Conditions: Homo sapiens, A-431, 50 μM (30 μg/mL), after 24 h, PBS = 100% viability
Method: As a comparison, the A431 cells were also treated with SPION alone, a mixture of unconjugated SPION and GOx, and doxorubicin (a chemotherapy drug).
A431 cancer cells were purchased from ATCC. They were cultured in Dulbecco's Modified Eagle Medium (DMEM) containing 10% FBS, penicillin (100 U/mL), and streptomycin (100 μg/mL) at 37° C. in a humidified atmosphere containing 5% CO2 and 95% air.
50 μL SPION, the mixture of GOx and SPION without conjugation, mAb-GOx-SPION, doxorubicin, or PBS (as a control) were each added to a 96-well plate seeded with A431 cancer cells, followed by addition of 100 μL of DMEM containing 4 g/L glucose. After being incubated for various amounts of time, the cells were washed with PBS 3 times. 100 μL DMEM was added before cell viability was measured by using a CellTiter-Glo viability assay kit.
The cytotoxic effects of the system as functions of the concentrations of both cetuximab-GOx-SPION and glucose were investigated. 50 μL cetuximab-GOx-SPION (1.0 μg/mL) was added to 96-well plates seeded with A431 and HeLa cancer cells, followed by addition of 100 μL of DMEM that contains glucose at 20 g/L. After 1.5 h incubation, the cells were washed with PBS 3 times and then cultured in 200 μL of DMEM. After being incubated for another 12 h, cell viability was measured by using CellTiter-Glo viability assay kit. […]

**Q.** For `COc1cccc2c1C(=O)c1c(O)c3c(c(O)c1C2=O)C[C@@](O)(C(=O)CO)C[C@@H]3O[C@H]1C[C@H](N)[C@H](O)[C@H](C)O1` [doxorubicin], which viability at 50 µM is on record?
**A.** ~3%
